Patent US20250177383A1, “DI-CYCLOPROPYL BASED IL-17A MODULATORS AND USES THEREOF” (DICE ALPHA, INC., priority 2022, published 2025)

Key:
IL-17A/A = biological target: T1, IL-17A/A (Homo sapiens, UniProt Q16552); assay: IL-17A/A HEK-Blue Cell Assay; type: cell-based; conditions: HEK-Blue IL-17 reporter cells, IL-17A/A stimulation, 20 hours, SEAP readout; for IC50: read-out: IL17 AA HEK-5 pIC50 (converted)
T1 sequence (Q16552 24-155): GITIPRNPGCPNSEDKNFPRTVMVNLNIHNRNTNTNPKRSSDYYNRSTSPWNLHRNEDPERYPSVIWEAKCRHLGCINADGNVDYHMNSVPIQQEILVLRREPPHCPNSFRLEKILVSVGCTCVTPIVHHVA
Experimental: (§1) The HEK-Blue IL-17 reporter cell line (Fisher #NC1408637) was used for cell-based IL-17A/A inhibition assays. Cells were grown and prepared for assays according to the manufacturer's instructions. This cell line consists of HEK 293 cells that were designed to expressed IL-17R^A, IL-17R^C, and the ActI adapter molecule, the combination of which, when stimulated by IL-17A/A activates a NFκB promoter and drives expression of a recombinant Secreted Alkaline Phosphatase (SEAP) protein. Media from the cells is then added to a development reagent (Quanti-Blue Substrate, Fisher #NC9711613), and read at A630.
(§2) Compounds were titrated in DMSO, with a top final compound concentration of 10 uM and added to the cells immediately before adding IL-17A/A (Genscript #Z03228). The cells, compound, and IL-17A/A were then incubated for 20 hours before media was removed for SEAP analysis. The resulting inhibition curve was then analyzed using a Dotmatics screening protocol, and IC50 values were determined using a 4-parameter nonlinear fit. DMSO was added to a universal final concentration of 0.1% to optimize background. IL-17A/A inhibition data is provided in Table 1 for selected compounds.

IL-17A/F = biological target: T2, IL-17A/F (Homo sapiens, UniProt Q16552+Q96PD4); assay: IL-17A/F HEK-Blue Cell Assay; type: cell-based; conditions: HEK-Blue IL-17 reporter cells, IL-17A/F stimulation, 20 hours, SEAP readout; for IC50: read-out: IL17AF HEK Blue pIC50 (converted)
T2 sequence (Q16552 24-155): T1 sequence (Q16552 24-155)
T2 sequence (Q96PD4 31-163): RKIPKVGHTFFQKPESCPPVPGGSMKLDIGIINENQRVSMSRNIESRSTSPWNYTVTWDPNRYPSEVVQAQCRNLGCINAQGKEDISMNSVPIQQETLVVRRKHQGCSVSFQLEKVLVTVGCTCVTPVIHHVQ
Experimental: as §1, with “cell-based IL-17A/F” for “cell-based IL-17A/A”, “expressed IL-17RA,” for “expressed IL-17R^A,”, “(SEAP) geneprotein.” for “(SEAP) protein.”
as §2, with “DMSO” for “DMSO, with a top final compound concentration of 10 uM”, “(Custom from R&D systems, untagged IL-17A/F+BSA as a carrier protein).” for “(Genscript #Z03228).”, “background.” for “background. IL-17A/A inhibition data is provided in Table 1 for selected compounds.”

CO[C@@H](C)C(=O)N[C@@H](C(=O)N1CCN(C)[C@H](C)C1)[C@@H](C)c1ccc(NC(=O)[C@@H](NC(=O)C2(F)CC2)C(C2CC2)C2CC2)c(F)c1 [Compound 273]
IC50 (IL-17A/A): < 10 nM
IC50 (IL-17A/F): 100 to 10000 nM

CCC(=O)NC(C(=O)N1CCN(C)CC1)C(c1ccc(NC(=O)[C@@H](NC(=O)c2ccnn2CC)C(C2CC2)C2CC2)c(F)c1)C(F)(F)F (single isomer, unassigned) [Compound 352]
IC50 (IL-17A/A): 100 to 10000 nM
IL17AF HEK Blue pIC50 (IL-17A/F): C (7>C≥5)

CCOC(C)C(=O)N[C@@H](C(=O)N1CCN(C)[C@H](C)C1)[C@@H](C)c1ccc(NC(=O)[C@@H](NC(=O)C2(F)CC2)C(C2CC2)C2CC2)c(F)c1 (single isomer, unassigned) [Compound 322]
IC50 (IL-17A/A): < 10 nM
IL17AF HEK Blue pIC50 (IL-17A/F): C (7>C≥5)

CCn1nccc1C(=O)N[C@H](C(=O)Nc1ccc([C@H](C)[C@@H](NC(=O)C(C)OCCOC)C(=O)N2CCN(C)CC2)cc1F)C(C1CC1)C1CC1 (single isomer, unassigned) [Compound 315]
IC50 (IL-17A/A): 10 to 100 nM
IL17AF HEK Blue pIC50 (IL-17A/F): C (7>C≥5)

CCn1nccc1C(=O)N[C@H](C(=O)Nc1ccc([C@H](C)[C@@H](NC(=O)C(C)CC(F)(F)F)C(=O)N2CCN(C)CC2)cc1F)C(C1CC1)C1CC1 (single isomer, unassigned) [Compound 332]
IL17 AA HEK-5 pIC50 (IL-17A/A): B (8>B≥7 as B)
IC50 (IL-17A/F): 10 to 100 nM

CCOC(=O)N[C@@H](C)C(=O)N[C@@H](C(=O)N1CCN(C)[C@H](C)C1)[C@@H](C)c1ccc(NC(=O)[C@@H](NC(=O)C2(F)CC2)C(C2CC2)C2CC2)c(F)c1 [Compound 282]
IC50 (IL-17A/A): < 10 nM
IC50 (IL-17A/F): 10 to 100 nM

CO[C@@H](C)C(=O)N[C@@H](C(=O)N1C[C@H]2CC[C@@H](C1)N2C)[C@@H](C)c1ccc(NC(=O)[C@@H](NC(=O)C2(F)CC2)C(C2CC2)C2CC2)c(F)c1 [Compound 294]
IC50 (IL-17A/A): 10 to 100 nM
IC50 (IL-17A/F): 100 to 10000 nM

CCC(=O)NC(C(=O)N1CCN(C)CC1)C(c1ccc(NC(=O)[C@@H](NC(=O)c2ccnn2CC)C(C2CC2)C2CC2)c(F)c1)C(F)(F)F (single isomer, unassigned) [Compound 356]
IC50 (IL-17A/A): 10 to 100 nM
IL17AF HEK Blue pIC50 (IL-17A/F): C (7>C≥5)

CCn1nccc1C(=O)N[C@H](C(=O)Nc1ccc(C(C(NC(=O)[C@H](C)OC)C(=O)N2CCN(C)[C@H](C)C2)C(F)(F)F)cc1F)C(C1CC1)C1CC1 (single isomer, unassigned) [Compound 357]
IC50 (IL-17A/A): 100 to 10000 nM
IC50 (IL-17A/F): 100 to 10000 nM

COC(=O)N1CCC[C@H]1C(=O)N[C@@H](C(=O)N1CCN(C)[C@H](C)C1)[C@@H](C)c1ccc(NC(=O)[C@@H](NC(=O)C2(F)CC2)C(C2CC2)C2CC2)c(F)c1 [Compound 281]
IC50 (IL-17A/A): < 10 nM
IC50 (IL-17A/F): 100 to 10000 nM

CCC(=O)N[C@@H](C(=O)N1CCN(C)CC1)[C@@H](C)c1ccc(NC(=O)[C@@H](NC(=O)c2ccnn2CCF)C(C2CC2)C2CC2)c(F)c1 [Compound 216]
IC50 (IL-17A/A): 10 to 100 nM
IC50 (IL-17A/F): 10 to 100 nM

CCOC(C)C(=O)N[C@@H](C(=O)N1CCN(C)[C@H](C)C1)[C@@H](C)c1ccc(NC(=O)[C@@H](NC(=O)c2ccnn2CC)C(C2CC2)C2CC2)c(F)c1 (single isomer, unassigned) [Compound 323]
IC50 (IL-17A/A): < 10 nM
IC50 (IL-17A/F): 10 to 100 nM

CCn1nccc1C(=O)N[C@H](C(=O)Nc1ccc([C@H](C)[C@@H](NC(=O)C(C2CC2)C2CC2)C(=O)N2CCN(C)CC2)cc1F)C(C1CC1)C1CC1 [Compound 330]
IC50 (IL-17A/A): < 10 nM
IC50 (IL-17A/F): 10 to 100 nM

CCn1nccc1C(=O)N[C@H](C(=O)Nc1ccc([C@H](C)[C@@H](NC(=O)N(C)C2CC2)C(=O)N2CCN(C)[C@H](C)C2)cc1F)C(C1CC1)C1CC1 [Compound 291]
IC50 (IL-17A/A): < 10 nM
IC50 (IL-17A/F): < 10 nM

CCn1nccc1C(=O)N[C@H](C(=O)Nc1ccc([C@H](C)[C@@H](NC(=O)COC)C(=O)N2CCN(C)C[C@@H]2C)cc1F)C(C1CC1)C1CC1 [Compound 283]
IC50 (IL-17A/A): < 10 nM
IC50 (IL-17A/F): 10 to 100 nM

CCn1nccc1C(=O)N[C@H](C(=O)Nc1ccc([C@H](C)[C@@H](NC(=O)C(C)CC(F)(F)F)C(=O)N2CCN(C)[C@H](C)C2)cc1F)C(C1CC1)C1CC1 (single isomer, unassigned) [Compound 324]
IC50 (IL-17A/A): < 10 nM
IC50 (IL-17A/F): 10 to 100 nM

CCOC(=O)N[C@@H](CF)C(=O)N[C@@H](C(=O)N1CCN(C)[C@H](C)C1)[C@@H](C)c1ccc(NC(=O)[C@@H](NC(=O)C2(F)CC2)C(C2CC2)C2CC2)c(F)c1 [Compound 358]
IC50 (IL-17A/A): < 10 nM
IC50 (IL-17A/F): 100 to 10000 nM

CCC(OC)C(=O)N[C@@H](C(=O)N1CCN(C)[C@H](C)C1)[C@@H](C)c1ccc(NC(=O)[C@@H](NC(=O)c2ccnn2CC)C(C2CC2)C2CC2)c(F)c1 (single isomer, unassigned) [Compound 338]
IC50 (IL-17A/A): < 10 nM
IC50 (IL-17A/F): 10 to 100 nM

CCC(=O)N[C@@H](C(=O)N1CCN(C)[C@H](C)C1)[C@@H](C)c1ccc(NC(=O)[C@@H](NC(=O)c2ccnn2C)C(C2CC2)C2CC2)c(F)c1 [Compound 297]
IC50 (IL-17A/A): < 10 nM
IC50 (IL-17A/F): 10 to 100 nM

COC(=O)N1CC[C@H]1C(=O)N[C@@H](C(=O)N1CCN(C)[C@H](C)C1)[C@@H](C)c1ccc(NC(=O)[C@@H](NC(=O)C2(F)CC2)C(C2CC2)C2CC2)c(F)c1 [Compound 278]
IC50 (IL-17A/A): < 10 nM
IC50 (IL-17A/F): 100 to 10000 nM

CCn1nccc1C(=O)N[C@H](C(=O)Nc1ccc([C@H](C)[C@@H](NC(=O)[C@H](C)OC)C(=O)N2CCN(C)C(CF)C2)cc1F)C(C1CC1)C1CC1 (single isomer, unassigned) [Compound 299]
IC50 (IL-17A/A): < 10 nM
IC50 (IL-17A/F): 10 to 100 nM

COC(=O)N1CCC[C@H]1C(=O)N[C@@H](C(=O)N1CCN(C)CC1)[C@@H](C)c1ccc(NC(=O)[C@@H](NC(=O)C2(F)CC2)C(C2CC2)C2CC2)c(F)c1 [Compound 280]
IC50 (IL-17A/A): 10 to 100 nM
IC50 (IL-17A/F): 100 to 10000 nM

CCn1nccc1C(=O)N[C@H](C(=O)Nc1ccc([C@H](C)[C@@H](NC(=O)C(C)C2CC2)C(=O)N2CCN(C)[C@H](C)C2)cc1F)C(C1CC1)C1CC1 (single isomer, unassigned) [Compound 310]
IL17 AA HEK-5 pIC50 (IL-17A/A): A (pIC50 of greater than or equal 8 as A)
IC50 (IL-17A/F): 10 to 100 nM

CCOCCN(C)C(=O)N[C@@H](C(=O)N1CCN(C)CC1)[C@@H](C)c1ccc(NC(=O)[C@@H](NC(=O)c2ccnn2CC)C(C2CC2)C2CC2)c(F)c1 [Compound 316]
IC50 (IL-17A/A): 10 to 100 nM
IC50 (IL-17A/F): 100 to 10000 nM

CCn1nccc1C(=O)N[C@H](C(=O)Nc1ccc(C(C(NC(=O)[C@H](C)OC)C(=O)N2CCN(C)[C@H](C)C2)C(F)(F)F)cc1F)C(C1CC1)C1CC1 (single isomer, unassigned) [Compound 351]
IC50 (IL-17A/A): 100 to 10000 nM
IC50 (IL-17A/F): 100 to 10000 nM

CCC(=O)N[C@@H](C(=O)N1C[C@H]2CC[C@@H](C1)N2C)[C@@H](C)c1ccc(NC(=O)[C@@H](NC(=O)c2ccnn2C(C)C)C(C2CC2)C2CC2)c(F)c1 [Compound 264]
IC50 (IL-17A/A): < 10 nM

CCC(=O)N[C@@H](C(=O)N1CCN(C)[C@H](C)C1)[C@@H](C)c1ccc(NC(=O)[C@@H](NC(=O)c2ccnn2C(C)C)C(C2CC2)C2CC2)c(F)c1 [Compound 258]
IC50 (IL-17A/A): < 10 nM

CCC(=O)N[C@@H](C(=O)N1CC2(CN(C)C2)C1)[C@@H](C)c1ccc(NC(=O)[C@@H](NC(=O)c2ccnn2CC)C(C2CC2)C2CC2)c(F)c1 [Compound 238]
IC50 (IL-17A/A): 100 to 10000 nM

CCC(=O)N[C@@H](C(=O)N1C[C@H]2C[C@@H](C1)N2C)[C@@H](C)c1ccc(NC(=O)[C@@H](NC(=O)c2ccnn2CC)C(C2CC2)C2CC2)c(F)c1 [Compound 241]
IC50 (IL-17A/A): 10 to 100 nM

CCC(=O)N[C@@H](C(=O)N1C[C@H]2C[C@@H]1CN2C)[C@@H](C)c1ccc(NC(=O)[C@@H](NC(=O)c2ccnn2C(C)C)C(C2CC2)C2CC2)c(F)c1 [Compound 266]
IC50 (IL-17A/A): 10 to 100 nM

CCC(=O)N[C@@H](C(=O)N1CCN(C)CC1)[C@@H](C)c1ccc(NC(=O)[C@@H](NC(=O)c2nonc2CC)C(C2CC2)C2CC2)c(F)c1 [Compound 204]
IC50 (IL-17A/A): < 10 nM

CCn1nccc1C(=O)N[C@H](C(=O)Nc1ccc([C@H](C)[C@@H](NC(=O)[C@H](C)OC)C(=O)N2C[C@H]3C[C@@H]2CN3C)cc1F)C(C1CC1)C1CC1 [Compound 256]
IC50 (IL-17A/A): 10 to 100 nM
